US20140363841A1, “INDUCED PLURIPOTENT STEM CELL (IPSC)-DERIVED CARDIOMYOCYTE-LIKE CELLS AND USES THEREOF” (priority 2012, published 2014)
Where “and” joins values, the source holds several entries; their conditions need not be identical. Equal values may be shown once. Read-outs that look alike come from different tables or passages of the source.

Key:
[1] = tested on: hiPSC-CMs (human induced pluripotent stem cell-derived cardiomyocyte-like cells, lines C2 and C3); test: Multielectrode array (MEA) field potential recording: cFPD and FPmin; type: cell-based; settings: for FPmin (normalized values): baseline 100±0; for change in FPmin (in words) / changes in cFPD (in words): drug alone; for changes in cFPD (in words): CMs from both cell lines; for cFPD (normalized) after reversal of isoprenaline-reduced cFPD: beta-blocker applied after isoprenaline (0.1 μM); for cFPD effect relative to human ETPC unbound range (in words): non-linear regression of normalized cFPD, dose range 10^−9-10^−4 M
Procedure: Human iPSC lines [MSnviPSNF2 (C2), MSnviPSNF3 (C3)] were maintained on 1% matrigel (BD Biosciences, CA, USA) and grown in chemically defined mTeSR1 medium (Stem Cell Technologies, VA, Canada). Care was taken to manually remove the differentiated areas (<10%) with the help of a scraper before passaging. Cells were washed with DMEM-F12 (Invitrogen, USA) and incubated with 1 mg/ml dispase (Sigma, USA) for 5-7 minutes. Cells were then washed with DMEM-F12 and colonies scrapped from the culture dishes. Controlled tituration of the colonies was performed to get small clumps of approximately 50-70 μm in size for replating on new matrigel coated dishes (1:6 split ratio).
Subsequently, EBs were plated on 0.1% gelatin coated dishes in EB medium without SB203580. […] Beating areas were manually cut after day 21 of differentiation and utilized for various experiments.
(§1) To characterize the electrophysiological properties of the hiPSC-CMs, a multielectrode array (MEA) recording system (Multichannel Systems, Reutlingen, Germany) was used. The contracting areas were microdissected and plated on gelatin coated MEA plates. The MEA system allows simultaneous recordings from 60 titanium nitride electrodes (30 μm) at high spatial (200 μm) and temporal (15 kHz) resolutions. To assess the effects of different drugs on the electrophysiological properties, the stock drugs in DMSO were diluted in medium (2 mL). All drugs utilized in the study were purchased from Sigma, USA. Extracellular recording were performed for 180-300 seconds at baseline and at 5 minutes after drug application. The local activation maps were generated using Cardio2D software (Multichannel Systems, Reutlingen, Germany). The recorded electrograms were also used to determine the local field potential (FP) duration (FPD).
Comparisons at each time point were conducted using analysis of variance (ANOVA), and all data are presented as mean values±s.e.m of three independent experiments. Differences were considered statistically significant at p≦0.05. Corrected field potential duration curves were fitted using the one phase decay algorithm from GraphPad Prism software.

hiPSC-CMs [2] = settings: for modulation of beating rates (in words): beta-blocker applied alone; for effect on isoprenaline-induced increase in beating frequencies (in words): clusters initially treated with isoprenaline
From the text: as §1
The different agents were also evaluated to determine if these agents (drugs) could induce arrhythmia in hiPSC-CMs at supraphysiological ranges.

hiPSC-CMs [3] = test: MEA conduction velocity; type: cell-based, human
From the text: as §1

[4] = tested on: contracting EBs (iPSC-derived cardiomyocyte-like cells); test: Beat rate variability analysis in beta-adrenergic response (power spectral density of RR intervals); type: cell-based, human; settings: 0.1 μM isoprenaline, then 1 μM beta-blocker where stated
From the text: To study the autonomic modulations of beating period of the contracting EBs, power spectral density of beat-to-beat or RR intervals based on 5-min recordings from the MEA were used to derive the Total Power (TP), very low frequency power (VLF), low frequency power (LF), high frequency power (HF), LF (normalized unit), HF (normalized unit) and ratio of LF/HF of spectral of beat rate variability using software such as HRV Toolkit (physionet.org/tutorials/hrv-toolkit/, Harvard Medical School) or LabVIEW Biomedical Toolkit for heart rate variability. […] The data were obtained using iPSC-derived cardiomyocyte-like cells from an individual with genetic pre-disposition to cardiac arrhythmia (n=4; referring to 4 regional areas within an EB), and iPSC-derived cardiomyocyte-like cells from a normal individual without genetic pre-disposition to cardiac arrhythmia (n=10).

[5] = human, unbound therapeutic plasma concentration; cited from earlier work
[6] = EBs from individual with genetic disposition to arrhythmia (n=4)
[7] = EBs from normal healthy donor (n=10)
[8] = over all three tested doses (range 0.01-10 μM)

CCCCc1oc2ccccc2c1C(=O)c1cc(I)c(OCCN(CC)CC)c(I)c1 [amiodarone, Amiodarone]
cFPD prolongation ([1]; 1 μM): 37%
cFPD ([1]; 1 μM, C2 derived CM, baseline 0.26±0.009 s, n=3): 0.36 ± 0.01 s
FPmin shortening ([1]; 1 μM, C2 derived CMs): 25%
FPmin (normalized values) ([1]; 1 μM, C2 derived CMs, n=3): 73.6±3.8
FPmin (normalized values) ([1]; 1 μM, C3 derived CMs, n=3, ns): 90±2.7
FPmin reduction ([1]; 1 μM, C3 derived CMs, ns): 10%
effect on beating frequencies (in words) (hiPSC-CMs [2]; higher doses, 10-100 μM): increased beating frequencies

O=C(NCC1CCCCN1)c1cc(OCC(F)(F)F)ccc1OCC(F)(F)F (centres unmarked) [flecainide, Flecainide]
increase in cFPDs ([1]; 1 μM): 1.7 fold
cFPD ([1]; 1 μM, C2 derived CMs, baseline 0.32±0.04 s, n=3): 0.55 ± 0.06 s
change in FPmin (in words) [1]: did not show any significant change
increase in beating frequencies (hiPSC-CMs [2]; 10 μM): 2 fold
reduction of conduction velocity (hiPSC-CMs [3]; 1 μM): 45%
reduction of conduction velocity (in words) (hiPSC-CMs [3]; lowest dose, 0.01 μM): did not show any significant reduction

CC(C)NCC(O)c1ccc(O)c(O)c1 (centres unmarked) [isoprenaline]
cFPD reduction ([1]; 0.1 μM): 20%
cFPD (normalized) ([1]; 0.1 μM isoprenaline, baseline 100±0.0%, n=3): 81.2±2.4% and 79.6±3.4%
effect on beating frequencies (in words) (hiPSC-CMs [2]; clusters treated with the beta-adrenergic agonist): significant increase in beating frequencies
HF (normalized unit) [4, 6]: 38.864±16.674%
LF (normalized unit) [4, 6]: 61.136±16.674%
LF/HF ratio [4, 6]: 1.897±1.052
Total Power (TP) of beat rate variability [4, 6]: 0.464±0.047 ms^2
high frequency power (HF) [4, 6]: 0.064±0.095 ms^2
low frequency power (LF) [4, 6]: 0.058±0.043 ms^2
very low frequency power (VLF) [4, 6]: 0.341±0.167 ms^2
HF (normalized unit) [4, 7]: 25.494±2.381%
LF (normalized unit) [4, 7]: 74.505±2.380%
LF/HF ratio [4, 7]: 2.949±0.326
Total Power (TP) of beat rate variability [4, 7]: 0.645±0.001 ms^2
high frequency power (HF) [4, 7]: 0.017±0.002 ms^2
low frequency power (LF) [4, 7]: 0.050±0.001 ms^2
very low frequency power (VLF) [4, 7]: 0.578±0.002 ms^2

CCN(CC)CC(=O)Nc1c(C)cccc1C [lidocaine, Lidocaine]
changes in cFPD (in words) [1]: did not demonstrate any significant changes
effect on FPmin, dose-dependent treatment (in words) ([1]; maximal effects at 10 μM dosage): FPmin shortening
reduction of conduction velocity (hiPSC-CMs [3]; [8]): 40%

CC(C)(C)NCC(O)COc1cccc2c1CC(O)C(O)C2 (centres unmarked) [nadolol, Nadolol]
cFPD (normalized) after reversal of isoprenaline-reduced cFPD ([1]; n=3): 92.3±1.5%
change in FPmin (in words) [1]: did not have any significant effects
changes in cFPD (in words) [1]: did not have any significant effects
cFPD effect relative to human ETPC unbound range (in words) [1]: no significant cFPD prolongation within the ETPC unbound range
modulation of beating rates (in words) (hiPSC-CMs [2]): not apparent
effect on isoprenaline-induced increase in beating frequencies (in words) (hiPSC-CMs [2]): reversed
ETPC unbound range [5]: 0.18 to 0.80 µM

CC(C)NCC(O)COc1cccc2ccccc12 (centres unmarked) [propranolol, Propranolol]
cFPD (normalized) after reversal of isoprenaline-reduced cFPD ([1]; n=3): 98.3±4.5%
change in FPmin (in words) [1]: did not have any significant effects
changes in cFPD (in words) [1]: did not have any significant effects
modulation of beating rates (in words) (hiPSC-CMs [2]): not apparent
effect on isoprenaline-induced increase in beating frequencies (in words) (hiPSC-CMs [2]): reversed
effect on beating frequencies (in words) (hiPSC-CMs [2]; higher doses, 10-100 μM): did not show any major effect

C=C[C@H]1C[N@@]2CC[C@H]1C[C@@H]2[C@@H](O)c1ccnc2ccc(OC)cc12 [quinidine, Quinidine]
FPmin shortening ([1]; 10 μM, C2 cell line derived CMs): 55%
FPmin (normalized) ([1]; 10 μM, C2 cell line derived CMs, baseline 100, n=3): 45±3.5%
cFPD ([1]; 10 μM, C2 line derived CMs, baseline 0.31±0.03 s, n=3): 0.50 ± 0.05 s
maximum FPmin shortening ([1]; 10 μM, C3 cell line derived CMs): 37%
cFPD prolongation ([1]; 10 μM, CMs derived from C2 line): 62%
cFPD prolongation ([1]; 10 μM, hiPSC-CMs (FIG. 1A, C)): 55%
increase in beating frequencies (hiPSC-CMs [2]; 100 μM): 3 fold
beating frequency (BF) (hiPSC-CMs [2]; 100 μM, baseline 0.66±0.06 Hz, n=3): 1.84±0.08 Hz
reduction of conduction velocity (hiPSC-CMs [3]; [8]): 20-25%

CC(C)NCC(O)c1ccc(NS(C)(=O)=O)cc1 (centres unmarked) [sotalol, Sotalol]
cFPD prolongation ([1]; 50 μM): 65%
change in FPmin (in words) [1]: did not show any significant change
cFPD effect relative to human ETPC unbound range (in words) [1]: maximally observed within the human ETPC range
increase in beating frequencies (hiPSC-CMs [2]; 500 μM): 1.8 fold
ETPC unbound range [5]: 1.8 to 14 µM

COc1ccc(CCN(C)CCCC(C#N)(c2ccc(OC)c(OC)c2)C(C)C)cc1OC (centres unmarked) [verapamil, Verapamil]
effect on beating frequencies (in words) (hiPSC-CMs [2]): significantly reduced beating frequencies
effect of prolonged exposure (in words) (hiPSC-CMs [2]; 5 μM): beating arrest
